These results are taken from PubChem BioAssay (NCI).

Some test systems named below: SN12K1 renal; KM20L2 colon; M19-MEL melanoma; RXF-631 renal; LXFL 529 NSCLC; SNB-78 CNS; XF 498 CNS; DLD-1 colon; HOP-18 NSCLC.
Assay in all cases: growth of human tumour cells (NCI), 48 h

Each structure is given as a SMILES string.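 48-hour exposure; five concentrations; linearly interpolated endpoints. TGI is the concentration that stops growth completely.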

Regarding `C/C(=N\NC(=S)N1CC2CCC(CC2)C1)c1nccs1`, the TGI worked out at 15.2 µM in the experiment on SN12K1 renal; 1.35 µM with KM20L2 colon; 1.8 µM with M19-MEL melanoma; 17.6 µM in the experiment with RXF-631 renal; 15.8 µM in the experiment on LXFL 529 NSCLC; 41.8 µM in the experiment with SNB-78 CNS. The TGI was 13.8 µM in the experiment with XF 498 CNS, 17.3 µM in the experiment with DLD-1 colon and 7.95 µM with HOP-18 NSCLC.

For the molecule `C[C@]12CC[C@@H]3c4ccc(OC(=O)N(CCCl)CCCl)cc4CC[C@H]3[C@@H]1CC[C@@H]2O`, the TGI came to 0.276 µM with SN12K1 renal; 0.254 µM in the experiment on M19-MEL melanoma; 17.3 µM in the experiment with SNB-78 CNS; 1.05 µM in the experiment on DLD-1 colon; 14 µM with HOP-18 NSCLC.
